Assay results taken from patent EP0284686A1, “Condensed triazoles, their preparation and their use as medicines” (BEECHAM GROUP PLC, priority 1986, dated 1988).

Key:
RBL-1 5-lipoxygenase = target: T1, RBL-1 5-lipoxygenase (Rattus norvegicus, UniProt P12527); test: RBL-1 5-lipoxygenase screen; type: biochemical; conditions: 10,000g supernatant from RBL-1 cells, formation of 5-HETE and 5,12-diHETE from [1-14C] arachidonic acid, read-out: Percentage inhibition of RBL-1 5-lipoxygenase at 20µM
T1 construct: 5-Lipoxygenase enzyme was prepared as a 10,000g supernatant from RBL-1 cells; endogenous in cells; host or cells: RBL-1 cells (10,000g supernatant of homogenate)
T1 sequence (P12527 1-673): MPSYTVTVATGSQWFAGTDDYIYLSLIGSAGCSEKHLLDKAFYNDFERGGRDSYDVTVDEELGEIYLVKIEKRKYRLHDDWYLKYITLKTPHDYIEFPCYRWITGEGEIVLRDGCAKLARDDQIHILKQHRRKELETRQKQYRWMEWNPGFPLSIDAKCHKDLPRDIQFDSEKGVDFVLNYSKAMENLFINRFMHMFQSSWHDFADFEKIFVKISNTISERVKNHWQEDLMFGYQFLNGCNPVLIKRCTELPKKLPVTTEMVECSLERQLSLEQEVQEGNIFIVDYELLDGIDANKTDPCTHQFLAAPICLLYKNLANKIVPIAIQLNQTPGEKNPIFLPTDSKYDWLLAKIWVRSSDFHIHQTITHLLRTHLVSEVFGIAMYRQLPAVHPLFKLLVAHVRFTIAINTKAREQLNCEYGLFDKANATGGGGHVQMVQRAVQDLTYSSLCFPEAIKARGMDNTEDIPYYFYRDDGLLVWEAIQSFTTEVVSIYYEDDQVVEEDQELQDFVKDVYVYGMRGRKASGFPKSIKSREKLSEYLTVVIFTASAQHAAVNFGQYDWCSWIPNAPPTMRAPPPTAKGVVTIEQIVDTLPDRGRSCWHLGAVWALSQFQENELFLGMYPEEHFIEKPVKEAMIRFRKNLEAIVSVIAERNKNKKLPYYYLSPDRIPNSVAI
Procedure: 5-Lipoxygenase enzyme was prepared as a 10,000g supernatant from RBL-1 cells by the method of Jakschik (Jakschik, B.A., F.F. Sun, L.M.Lee, and M.M. Steinhoff, 1980, Biochem. Biophys. Res.Comm. 95 103). The 10,000g supernatant was diluted with homogenization buffer to the equivalent of 1.5 - 2.5 × 10⁷ cells. ml.⁻¹ and made 2mM with respect to CaCl₂. Aliquots of 0.5ml were then dispensed into tubes, and incubated at 29°C with 5µl ethanol or compound in ethanol at the desired concentration for 2min. Then [1-¹⁴C] arachidonic acid was added in buffer to give a final concentration of 6.3µM and 0.2µCi per incubation, and the reaction continued at 29°C for 2min. The reaction was terminated by adding 1ml of acetone and cooling on ice, 0.5ml of ice-cold saline and 100µl of 2N formic acid were added, and the mixture was extracted with 2 × 2ml of chloroform. The extract was stored under N₂ at -20°C until analysis by chromatography. Activity was measured as the percentage of total radioactivity found in 5-HETE and 5,12-diHETE, and inhibition calculated as the decrease in formation of the sum of these two species in compound-treated incubates relative to control incubations.

[1] = system: passive peritoneal anaphylaxis; test: Rat passive peritoneal anaphylaxis (PPA); type: in vivo; conditions: i.p., final concentration 2×10⁻⁴M, contact time 2½ minutes
Procedure: The method is essentially similar to that described previously by Ross et al (Ross, Janet W., Smith, H. and Spicer, Barbara A. Increased vascular permeability during passive peritoneal anaphylaxis in the rat. Int. Arch. Allergy appl. Immun. 51, 226, 1976.)
Charles River Sprague Dawley male rats of 225-275 g and Dunkin Hartley male white guinea pigs of 250-300 g were used.
Charles River Sprague Dawley male rats of 225 - 275 g were given intraperitoneal injections of 0.5 ml of either Bordetella pertussis vaccine (4 × 10¹⁰ organisms/ml; Burroughs Wellcome, London) or Pertussis vaccine absorbed (not less than 41.u. B. pertussis antigen with aluminium hydroxide; The Lister Institute Elstree, England), and subcutaneous injections of 0.5ml of an emulsion of 100 mg of ovalbumin (chicken egg albumin; crystallised and lyophilised, grade V, Sigma, London) in 2ml of isotonic saline and 3ml of incomplete Freund's adjuvant. The rats were bled by cardiac puncture on day 18, the blood was pooled and the serum separated, stored at -20°C and thawed only once before use. The serum produced 72 hour passive cutaneous anaphylaxis activity in recipient rats to a dilution of 1:64 to 1:32 which was decreased to a dilution of less than 1:2 by heating at 56°C for 4 hours.
Rats were given intraperitoneal injections of 2 ml of a 1:5 dilution of the rat anti-serum in isotonic saline. Two hours later 0.3ml of 5% solution of Pontamine Sky Blue (Raymond A. Lamb, London) in isotonic saline was injected intraveneously, followed by an intraperitoneal injection of the test compound in 1 ml of saline; (control rats received 1 ml of saline); followed 2.5 minutes later by an intraperitoneal injection of 5 ml of a Tyrode solution containing 50µg/ml heparin and 0.4 mg/ml of ovalbumin. The concentrations of the compounds were quoted as that in the 6 ml of fluid injected intraperitoneally. […]
The optical densities (OD) of the supernatants which were not contaminated with blood were determined immediately at 625nm. […]

Structure (SMILES): Cc1ccc(O)c2c1nnn2Cc1ccccc1 [Example 1, 3-Benzyl-4-hydroxy-7-methylbenzotriazole]
- inhibition at 20 µM (RBL-1 5-lipoxygenase): 89%

Structure (SMILES): Cc1ccc(O)c2nn(Cc3ccccc3)nc12 [Example 2, 2-Benzyl-4-hydroxy-7-methylbenzotriazole]
- Percentage inhibition SRS-A ([1]; SRS-A in peritoneal fluid assayed on guinea pig ileum): 49
- Percentage inhibition Dye ([1]; dye in peritoneal fluid (OD 625nm)): 30
- Percentage inhibition Histamine ([1]; histamine in peritoneal fluid): 45
- inhibition at 20 µM (RBL-1 5-lipoxygenase): 81%
